Assay [1] relates to TM40DNeo, TM40DMp and TM40DT cells. Description: MTT in vitro cell proliferation assay with NAC treatment. The class given is cell-based, mouse. Here is the method:
MTT in vitro cell proliferation assay—Cells were seeded at 10^3 cells/well in 96—well plate and allowed to grow at 37° C. with 5% CO2. At each time point MTT (3-(4, 5-dimethylthiazolyl-2)-2, 5 diphenyltetrazolium bromide) reagent (5 mg/ml) was added in a volume of 10 μl per well and incubated at 37° C. with 5% CO2 for 3 hrs. The media was aspirated and 100 μl of DMSO was added and mixed until a uniform purple color was formed. The cell samples were measured using a plate reader at 570 nm. Assays were performed in triplicates.

For assay [2], the system named is pERK1/2 in TM40DNeo, TM40DMp and TM40DT cells. The experiment in a line: ERK1/2 phosphorylation (Western blot) with NAC treatment. The class given is cell-based, mouse. Here is the method: ERK1/2 phosphorylation—Protein lysates (30 μg) were separated on 12% SDS-PAGE and phospho-plus kit was used to determine the ERK1/2 phosphorylation (Cat No. 9100, Cell Signaling Technology).
On the technique in general: In western blotting, separated proteins are transferred to a membrane and probed.

For `CC(=O)N[C@@H](CS)C(=O)O` [NAC, N-acetyl cysteine], the proliferation rate entry in assay [1] (TM40DMp cells) is recorded as “no significant change”; in assay [1] (TM40DNeo cells) it was “significant drop”; in assay [1] (TM40DT cells) it was “significant drop”. Further, the entries for the “levels of activated pERK1/2” value in assay [2] (TM40DMp cells), in assay [2] (TM40DNeo cells) and in assay [2] (TM40DT cells) were “no change”, “significantly reduced” and “significantly reduced”, respectively.

Values taken from patent US11723961B2, “Maspin, maspin derivatives, and maspin mimetics for reducing ROS, inflammation, and skin aging” (Northwestern University, priority 2014, dated 2023).
